Assay results taken from the supplement of paper PMC10307832.

How the values were obtained:
Test in all cases: relative viability (nuclei count vs DMSO), 5 days (fraction); higher = more cells survive
Avagacestat + Olaparib = compound: NC(=O)[C@@H](CCC(F)(F)F)N(Cc1ccc(-c2ncon2)cc1F)S(=O)(=O)c1ccc(Cl)cc1 [Avagacestat] + O=C(c1cc(Cc2n[nH]c(=O)c3ccccc23)ccc1F)N1CCN(C(=O)C2CC2)CC1 [Olaparib] (partner 8 µM)
How it was run: (§1)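 Lung cancer cell lines were pin-tool dosed in 1536-well plates on the day after seeding, with either a lone drug or a fixed anchor-drug dose plus five library-drug doses (not always all listed) in √10 steps. Nuclei were counted on 4× images after 5 days. Relative viability is the ratio of treated-well to vehicle-well nuclei counts, with each value a median of duplicate plates.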

Avagacestat + Foretinib = compound: NC(=O)[C@@H](CCC(F)(F)F)N(Cc1ccc(-c2ncon2)cc1F)S(=O)(=O)c1ccc(Cl)cc1 [Avagacestat] + COc1cc2c(Oc3ccc(NC(=O)C4(C(=O)Nc5ccc(F)cc5)CC4)cc3F)ccnc2cc1OCCCN1CCOCC1 [Foretinib] (partner 0.25 µM)
How it was run: as §1

Avagacestat + Alpelisib = compound: NC(=O)[C@@H](CCC(F)(F)F)N(Cc1ccc(-c2ncon2)cc1F)S(=O)(=O)c1ccc(Cl)cc1 [Avagacestat] + Cc1nc(NC(=O)N2CCC[C@H]2C(N)=O)sc1-c1ccnc(C(C)(C)C(F)(F)F)c1 [Alpelisib] (partner 2 µM)
How it was run: as §1

Avagacestat + Pemetrexed = compound: NC(=O)[C@@H](CCC(F)(F)F)N(Cc1ccc(-c2ncon2)cc1F)S(=O)(=O)c1ccc(Cl)cc1 [Avagacestat] + Nc1nc2[nH]cc(CCc3ccc(C(=O)N[C@@H](CCC(=O)O)C(=O)O)cc3)c2c(=O)[nH]1 [Pemetrexed] (partner 0.2 µM)
How it was run: as §1

Row | Cell Line | relative viability (Avagacestat + Olaparib; first compound 0.08 µM) | relative viability (Avagacestat + Olaparib; first compound 0.253 µM) | relative viability (Avagacestat + Olaparib; first compound 0.8 µM) | relative viability (Avagacestat + Olaparib; first compound 2.53 µM) | relative viability (Avagacestat + Olaparib; first compound 8 µM) | relative viability (Avagacestat + Foretinib; first compound 0.08 µM) | relative viability (Avagacestat + Foretinib; first compound 0.253 µM) | relative viability (Avagacestat + Foretinib; first compound 0.8 µM) | relative viability (Avagacestat + Foretinib; first compound 2.53 µM) | relative viability (Avagacestat + Foretinib; first compound 8 µM) | relative viability (Avagacestat + Alpelisib; first compound 0.08 µM) | relative viability (Avagacestat + Alpelisib; first compound 0.253 µM) | relative viability (Avagacestat + Alpelisib; first compound 0.8 µM) | relative viability (Avagacestat + Alpelisib; first compound 2.53 µM) | relative viability (Avagacestat + Alpelisib; first compound 8 µM) | relative viability (Avagacestat + Pemetrexed; first compound 0.08 µM) | relative viability (Avagacestat + Pemetrexed; first compound 0.253 µM) | relative viability (Avagacestat + Pemetrexed; first compound 0.8 µM) | relative viability (Avagacestat + Pemetrexed; first compound 2.53 µM) | relative viability (Avagacestat + Pemetrexed; first compound 8 µM)
1 | NCI-H23 | 0.302 | 0.316 | 0.315 | 0.335 | 0.296 | 1.11 | 1.17 | 0.925 | 1.14 | 0.93 | 0.912 | 0.766 | 0.768 | 0.683 | 0.688 | 0.966 | 0.863 | 0.905 | 0.801 | 0.31
2 | PC-14 | 0.316 | 0.418 | 0.298 | 0.251 | 0.3 | 1.1 | 1.08 | 1.1 | 0.956 | 0.817 | 0.9 | 1.05 | 0.975 | 1.06 | 0.587 | 0.137 | 0.142 | 0.134 | 0.124 | 0.136
3 | NCI-H647 | 0.766 | 0.663 | 0.626 | 0.508 | 0.366 | 1.38 | 1.41 | 1.27 | 1.21 | 1.11 | 1.46 | 0.994 | 1.3 | 0.959 | 0.884 | 0.171 | 0.171 | 0.186 | 0.149 | 0.15
4 | NCI-H838 | 1.08 | 0.87 | 0.881 | 0.805 | 0.575 | 1.1 | 1.35 | 1.07 | 1.01 | 0.944 | 1.19 | 1.18 | 1.06 | 0.906 | 0.814 | 0.263 | 0.271 | 0.28 | 0.238 | 0.243
5 | NCI-H1355 | 0.851 | 0.778 | 0.73 | 0.691 | 0.718 | 1.11 | 1.24 | 0.961 | 0.846 | 0.785 | 0.924 | 0.994 | 0.74 | 0.759 | 0.787 | 1.15 | 1.15 | 1.21 | 0.996 | 0.943
6 | LK-2 | 0.846 | 0.806 | 0.8 | 0.505 | 0.77 | 1.72 | 1.7 | 1.07 | 1.07 | 0.93 | 1.51 | 1.61 | 0.949 | 1.02 | 1 | 0.272 | 0.294 | 0.314 | 0.251 | 0.264
7 | NCI-H2009 | 0.718 | 0.73 | 0.779 | 0.667 | 0.66 | 1.31 | 1.39 | 1.24 | 1.24 | 1.21 | 1.28 | 1.29 | 1.16 | 1.18 | 1.08 | 1.16 | 1.15 | 1.11 | 1.02 | 0.975
8 | PC-3 [JPC-3] | 1.21 | 1.28 | 1.36 | 1.13 | 1.2 | 1.19 | 1.09 | 1.15 | 1.02 | 1.01 | 1.04 | 1.18 | 1.12 | 1.12 | 1.03 | 1.24 | 1.36 | 1.62 | 1.25 | 1.04
9 | NCI-H2170 | 0.78 | 0.722 | 0.612 | 0.64 | 0.582 | 1.02 | 1.12 | 0.988 | 0.899 | 1.01 | 1.02 | 0.843 | 0.883 | 0.751 | 0.721 | 0.258 | 0.268 | 0.23 | 0.274 | 0.261
10 | LCLC-97TM1 | 0.533 | 0.463 | 0.555 | 0.309 | 0.307 | 0.977 | 0.916 | 0.894 | 0.92 | 0.944 | 0.265 | 0.224 | 0.185 | 0.186 | 0.218 | 0.177 | 0.177 | 0.159 | 0.166 | 0.146
11 | NCI-H520 | 0.337 | 0.367 | 0.335 | 0.338 | 0.251 | 0.755 | 0.753 | 0.731 | 0.657 | 0.629 | 1.16 | 0.868 | 0.74 | 0.7 | 0.715 | 0.792 | 0.801 | 0.844 | 0.703 | 0.559
12 | UMC-11 | 0.387 | 0.698 | 0.356 | 0.385 | 0.389 | 1.19 | 1.15 | 1.26 | 1.13 | 1.06 | 1.22 | 1.19 | 1.21 | 0.885 | 0.933 | 0.884 | 0.887 | 1.01 | 0.796 | 0.718
13 | BEN | 1.12 | 1.24 | 1.05 | 0.838 | 1.05 | 0.692 | 0.694 | 0.725 | 0.74 | 0.62 | 1.13 | 1.01 | 0.944 | 0.774 | 1.07 | 0.879 | 0.897 | 0.851 | 0.904 | 0.807
14 | LCLC-103H | 0.809 | 0.617 | 0.845 | 0.745 | 0.766 | 0.803 | 0.849 | 0.757 | 0.56 | 0.784 | 0.983 | 0.939 | 1.01 | 0.842 | 0.753 | 0.448 | 0.412 | 0.433 | 0.456 | 0.486
